In patent US20030206968A1, “Fungicidal mixtures” (priority 1999, published 2003):
Where two headings read alike, the source gives them in different places.

How the values were obtained:
Assay type in all cases: in vivo
Puccinia recondita [1] = experiment: Greenhouse, Puccinia recondita on wheat, 1 day residual; details: for pest or weed control at 0.06 ppm / pest or weed control at 0.25 ppm / pest or weed control at 1 ppm / pest or weed control at 4 ppm: Puccinia recondita, read-out: Observed Efficacy
Excerpt: (§1) The fungicides are applied in single treatments, or in a combination comprising an azolopyrimidine of formula I and a compound selected from the classes (A), (B) and (C) as defined above. The compounds are applied in form of an aqueous spray mix obtained from a concentrated formulation or the technical material.
(§2) 1. Seed is planted in 6 cm diameter plastic pots and maintained in the greenhouse.
(§3) 2. When the primary leaf is fully expanded in the case of cereals or several leaves are present in the case of dicots, formulated test compounds are sprayed with a three nozzle overhead fungicide sprayer to near run-off. Alternatively, a single nozzle overhead track sprayer is used for application of the compounds to cereals at a rate of 200 l/ha. Plants are then allowed to air-dry.
(§4) 3. Inoculation precedes treatment in the case of curative evaluations and follows treatment in case of residual evaluations. For inoculation of powdery mildew disease, plants are set up on greenhouse benches with bottom watering mats and inoculated by dusting them with conidia from infected plants. Between inoculation and treatment for curative evaluations and between treatment and inoculation for residual evaluations, plants are maintained in the greenhouse with bottom watering.
(§5) For inoculation of non-powdery mildew diseases, an aqueous spore suspension of the pathogen is applied to the plant and the plants are kept 1-2 days in a moist infection chamber before being returned to the greenhouse where they are maintained by bottom watering.
(§6) 4. Disease on the foliage as percent leaf area with disease symptoms/signs is evaluated about 7 days after inoculation. In the case of wheat, the tips and bases of the leaves are excluded from the evaluation. [formula]
(§7) 1. Technical compounds are formulated in a solvent/surfactant system consisting of 5% acetone and 0.05% Tween 20 in deionized water. Compounds are dissolved in acetone prior to addition of the water; the Tween 20 can be added through either the acetone or the water. Dilutions are made using the solvent/surfactant system. Formulated compounds are prepared using deionized water.
(§8) 2. Two kinds of controls are included: Plants treated with the solvent/surfactant solution and inoculated (Solvent Blank). Untreated plants which are inoculated (Inoculated Control).
(§9) Assessments of the diseases took place at the indicated day after the application of the compounds. Per cent infected leaf area infected was evaluated. The efficacy of the compounds/compounds mixtures to control the diseases was calculated by using the formula given above under item 4: […]
(§10) Synergy was calculated using the % disease control values of specific treatments for the two COLBY formula given hereinabove
Fungicidal efficacy of the mixture of Azolopyrimidine C+metconazole (1 day residual) against Puccinia recondita on wheat The tank mix was obtained from a SC formulation containing 100 g Azolopyrimidine C per liter and an EC containing 100 g metconazole per liter. […]
Fungicidal efficacy of the mixture of Azolopyrimidine C+fluazinam (1 day residual) against Puccinia recondita on wheat The tank mix was obtained from technical material of Azolopyrimidine C and a SC formulation containing 500 g fluazinam per liter. […]

Blumeria graminis [2] = experiment: Greenhouse, Blumeria graminis on wheat, 1 day residual
Excerpt: as §1, §2, §3, §4, §6, §7, §8, §9, §10
Fungicidal efficacy of the mixture of Azolopyrimidine C+quinoxyfen (1 day residual)) against Blumeria graminis on wheat The tank mix was obtained from technical material of Azolopyrimidine C and quinoxyfen.
Fungicidal efficacy of the mixture of Azolopyrimidine C+metalaxyl (1 day residual) against Blumeria graminis on wheat The tank mix was obtained from technical material of Azolopyrimidine C and metalaxyl.
Fungicidal efficacy of the mixture of Azolopyrimidine C+famoxadone (1 day residual) against Blumeria graminis on wheat The tank mix was obtained from technical material of Azolopyrimidine C and famoxadone.

Blumeria graminis [3] = experiment: Greenhouse, Blumeria graminis on barley, 2 days curative
Protocol: as §1, with “The trials are carried out under greenhouse (Examples 1 to 32) or field conditions (Examples 33 to 40) in residual or curative applications. The fungicides” for “The fungicides”
as §2, §3, §4, §6, §7, §8, §9, §10
Fungicidal efficacy of the mixture of (S)-Azolopyrimidine C in admixture with Fenhexamid (2 days curative) against Blumeria graminis on barley. The tank mixes were obtained from technical material of (S)-Azolopyrimidine C and Fenhexamid.
Fungicidal efficacy of the mixture of (S)-Azolopyrimidine C in admixture with Azoxystrobin or Trifloxystrobin (2 days curative) against Blumeria graminis on barley. The tank mixes were obtained from technical material of (S)-Azolopyrimidine C and Azoxystrobin or Trifloxystrobin.

Botrytis cinerea = experiment: Apple fruit Botrytis test, Botrytis cinerea on apple fruits, 3 day residual
Protocol: 1. Apples (Malus X domestica Borkh.) variety Golden Delicious are disinfected by washing them briefly in 70% ethanol. After drying the apples are marked with four short equal-distant lines indicating the positions to be wounded.
2. Corresponding with the marks, four holes are poked around the apple equator with a pipette tip. 10 μl of the treatment solution are pipetted into each hole.
3. Three hours after application, 10 μl of a conidial suspension of Botrytis cinerea are pipetted into each. For incubation, the treated/inoculated apples are set up for five days.
4. Disease occurs as rotten apple tissue surrounding the inoculated wounds. The diameter of the rotten zone around each wound is measured.
1. Technical compounds are formulated in a solvent system consisting of 5% acetone and 0.05% Tween 20 in deionized water. Compounds are dissolved in acetone prior to dilution with water. Formulated compounds are prepared using deionized water.
2. Three kinds of controls are included:
Assessments of the diseases took place at the indicated day after the application of the compounds. Per cent infected leaf area infected was evaluated. The efficacy of the compounds/compounds mixtures to control the diseases was calculated by using the formula: [formula]
as §10
Fungicidal efficacy of the mixture of Azolopyrimidine A+vinclozolin (3 day residual) against Botrytis cinerea on apple fruits The tank mix was obtained from technical material of Azolopyrimidine A and a WG formulation containing 500 g vinclozolin per kg.
Fungicidal efficacy of the mixture of Azolopyrimidine A+cyprodinil (3 day residual) against Botrytis cinerea on apple fruits The tank mix was obtained from technical material of Azolopyrimidine A and a WG formulation containing 750 g cyprodinil per kg.
Fungicidal efficacy of the mixture of Azolopyrimidine A+benomyl (3 day residual) against Botrytis cinerea on apple fruits The tank mix was obtained from technical material of Azolopyrimidine A and a WP formulation containing 500 g benomyl per kg.

Puccinia recondita [4] = experiment: Greenhouse, Puccinia recondita on wheat, 2 days curative; details: Example 28
Protocol: as §1, with “The trials are carried out under greenhouse (Examples 1 to 32) or field conditions (Examples 33 to 40) in residual or curative applications. The fungicides” for “The fungicides”
as §2, §3, §4, §5, §6, §7, §8, §9, §10
Fungicidal efficacy of the mixture of (S)-Azolopyrimidine C in admixture with Azoxystrobin or Trifloxystrobin (2 days curative) against Puccinia recondita on wheat. The tank mixes were obtained from technical material of (S)-Azolopyrimidine C and Azoxystrobin or Trifloxystrobin.

Blumeria graminis [5] = experiment: Greenhouse, Blumeria graminis on wheat, 2 days curative; details: Example 27
Protocol: as §1, with “The trials are carried out under greenhouse (Examples 1 to 32) or field conditions (Examples 33 to 40) in residual or curative applications. The fungicides” for “The fungicides”
as §2, §3, §4, §6, §7, §8, §9, §10
Fungicidal efficacy of the mixture of (S)-Azolopyrimidine C in admixture with Azoxystrobin or Trifloxystrobin (2 days curative) against Blumeria graminis on wheat. The tank mixes were obtained from technical material of (S)-Azolopyrimidine C and Azoxystrobin or Trifloxystrobin.

Blumeria graminis [6] = experiment: Greenhouse, Blumeria graminis on wheat, 4 days residual; details: Example 30
Protocol: as §1, with “The trials are carried out under greenhouse (Examples 1 to 32) or field conditions (Examples 33 to 40) in residual or curative applications. The fungicides” for “The fungicides”
as §2, §3, §4, §6, §7, §8, §9, §10
Fungicidal efficacy of the mixture of (S)-Azolopyrimidine C in admixture with Azoxystrobin or Trifloxystrobin (4 days residual) against Blumeria graminis on wheat. The tank mixes were obtained from technical material of (S)-Azolopyrimidine C and Azoxystrobin or Trifloxystrobin.

Puccinia recondita [7] = experiment: Greenhouse, Puccinia recondita on wheat, 4 days residual; details: Example 31
Protocol: as §1, with “The trials are carried out under greenhouse (Examples 1 to 32) or field conditions (Examples 33 to 40) in residual or curative applications. The fungicides” for “The fungicides”
as §2, §3, §4, §5, §6, §7, §8, §9, §10
Fungicidal efficacy of the mixture of (S)-Azolopyrimidine C in admixture with Azoxystrobin or Trifloxystrobin (4 days residual) against Puccinia recondita on wheat. The tank mixes were obtained from technical material of (S)-Azolopyrimidine C and Azoxystrobin or Trifloxystrobin.

C[C@@]1(c2ccc(Oc3ccccc3)cc2)OC(=O)N(Nc2ccccc2)C1=O (racemic) [famoxadone]
pest or weed control at 0.06 ppm (Puccinia recondita [1]; Example 19, dose rate 0.06 ppm): 0%
pest or weed control at 0.25 ppm (Puccinia recondita [1]; Example 19, dose rate 0.25 ppm): 0%
pest or weed control at 1 ppm (Puccinia recondita [1]; Example 19, dose rate 1 ppm): 31%
pest or weed control at 4 ppm (Puccinia recondita [1]; Example 19, dose rate 4 ppm): 61%
Observed Efficacy (Blumeria graminis [2]; Example 18, dose rate 0.06 ppm): 0%
Observed Efficacy (Blumeria graminis [2]; Example 18, dose rate 0.25 ppm): 0%
Observed Efficacy (Blumeria graminis [2]; Example 18, dose rate 1 ppm): 0%
Observed Efficacy (Blumeria graminis [2]; Example 18, dose rate 4 ppm): 0%

[Cl-].[Cu+2].[Cu+2].[OH-].[OH-].[OH-] [copper oxychloride]
Observed Efficacy (Puccinia recondita [1]; Example 21, dose rate 0.06 ppm): 0%

CCCCCCCCCCCCNC(=N)N [dodine]
pest or weed control at 0.06 ppm (Puccinia recondita [1]): 0%

CC1(C(=O)Nc2ccc(O)c(Cl)c2Cl)CCCCC1 [Fenhexamid]
Observed Efficacy (Blumeria graminis [3]; Example 26, dose rate 0.74 ppm): 0%
Observed Efficacy (Blumeria graminis [3]; Example 26, dose rate 2.2 ppm): 0%
Observed Efficacy (Blumeria graminis [3]; Example 26, dose rate 6.7 ppm): 0%
Observed Efficacy (Blumeria graminis [3]; Example 26, dose rate 20 ppm): 1%
Observed Efficacy (Blumeria graminis [3]; Example 26, dose rate 60 ppm): 7%
Observed Efficacy (Blumeria graminis [3]; Example 26, dose rate 180 ppm): 39%

S1SSSSSSS1 [sulfur]
pest or weed control at 1 ppm (Puccinia recondita [1]; Example 22, dose rate 1 ppm): 0%

C=CC1(C)OC(=O)N(c2cc(Cl)cc(Cl)c2)C1=O (centres unmarked) [vinclozolin]
Observed Efficacy (Botrytis cinerea; Example 4, dose rate 10 ppm): 8%
Observed Efficacy (Botrytis cinerea; Example 7, dose rate 1 ppm): 0%
Observed Efficacy (Botrytis cinerea; Example 7, dose rate 10 ppm): 17%

CC1=C(C(=O)Nc2ccccc2)SCCO1 [carboxin]
pest or weed control at 0.06 ppm (Puccinia recondita [1]): 0%
pest or weed control at 0.25 ppm (Puccinia recondita [1]): 0%
pest or weed control at 1 ppm (Puccinia recondita [1]): 0%
pest or weed control at 4 ppm (Puccinia recondita [1]): 4%

Trifloxystrobin
Observed Efficacy (Puccinia recondita [4]; dose rate 1.6 ppm): 0%
Observed Efficacy (Puccinia recondita [4]; dose rate 3.1 ppm): 0%
Observed Efficacy (Puccinia recondita [4]; dose rate 6.3 ppm): 0%
Observed Efficacy (Puccinia recondita [4]; dose rate 12.5 ppm): 0%
Observed Efficacy (Puccinia recondita [4]; dose rate 25 ppm): 0%
Observed Efficacy (Blumeria graminis [5]; dose rate 1.6 ppm): 34%
Observed Efficacy (Blumeria graminis [5]; dose rate 3.1 ppm): 55%
Observed Efficacy (Blumeria graminis [5]; dose rate 6.3 ppm): 78%
Observed Efficacy (Blumeria graminis [5]; dose rate 12.5 ppm): 89%
Observed Efficacy (Blumeria graminis [5]; dose rate 25 ppm): 98%
Observed Efficacy (Blumeria graminis [5]; dose rate 50 ppm): 99%
Observed Efficacy (Blumeria graminis [6]; dose rate 3.1 ppm): 0%
Observed Efficacy (Blumeria graminis [6]; dose rate 6.3 ppm): 0%
Observed Efficacy (Blumeria graminis [6]; dose rate 12.5 ppm): 0%
Observed Efficacy (Blumeria graminis [6]; dose rate 25 ppm): 0%
Observed Efficacy (Blumeria graminis [6]; dose rate 50 ppm): 14%
Observed Efficacy (Blumeria graminis [3]; Example 29, dose rate 1.6 ppm): 22%
Observed Efficacy (Blumeria graminis [3]; Example 29, dose rate 3.1 ppm): 36%
Observed Efficacy (Blumeria graminis [3]; Example 29, dose rate 6.3 ppm): 59%
Observed Efficacy (Blumeria graminis [3]; Example 29, dose rate 12.5 ppm): 74%
Observed Efficacy (Blumeria graminis [3]; Example 29, dose rate 25 ppm): 89%
Observed Efficacy (Blumeria graminis [3]; Example 29, dose rate 50 ppm): 96%
Observed Efficacy (Puccinia recondita [7]; dose rate 3.1 ppm): 0%
Observed Efficacy (Puccinia recondita [7]; dose rate 6.3 ppm): 0%
Observed Efficacy (Puccinia recondita [7]; dose rate 12.5 ppm): 0%
Observed Efficacy (Puccinia recondita [7]; dose rate 25 ppm): 0%
Observed Efficacy (Puccinia recondita [7]; dose rate 50 ppm): 0%

CCCCNC(=O)n1c(NC(=O)OC)nc2ccccc21 [benomyl]
Observed Efficacy (Botrytis cinerea; Example 6, dose rate 1 ppm): 0%
Observed Efficacy (Botrytis cinerea; Example 6, dose rate 10 ppm): 13%

COCC(=O)N(c1c(C)cccc1C)C(C)C(=O)OC (centres unmarked) [metalaxyl]
Observed Efficacy (Blumeria graminis [2]; Example 17, dose rate 0.06 ppm): 0%
Observed Efficacy (Blumeria graminis [2]; Example 17, dose rate 0.25 ppm): 0%
Observed Efficacy (Blumeria graminis [2]; Example 17, dose rate 1 ppm): 0%
Observed Efficacy (Blumeria graminis [2]; Example 17, dose rate 4 ppm): 0%

O=[N+]([O-])c1cc(C(F)(F)F)c(Cl)c([N+](=O)[O-])c1Nc1ncc(C(F)(F)F)cc1Cl [fluazinam]
pest or weed control at 0.06 ppm (Puccinia recondita [1]; Example 14, dose rate 0.06 ppm): 0%
pest or weed control at 1 ppm (Puccinia recondita [1]; Example 14, dose rate 1 ppm): 4%
pest or weed control at 4 ppm (Puccinia recondita [1]; Example 14, dose rate 4 ppm): 17%

Fc1ccc(Oc2ccnc3cc(Cl)cc(Cl)c23)cc1 [quinoxyfen]
pest or weed control at 0.06 ppm (Puccinia recondita [1]; Example 15, dose rate 0.06 ppm): 0%
pest or weed control at 0.25 ppm (Puccinia recondita [1]; Example 15, dose rate 0.25 ppm): 0%
pest or weed control at 1 ppm (Puccinia recondita [1]; Example 15, dose rate 1 ppm): 0%
pest or weed control at 4 ppm (Puccinia recondita [1]; Example 15, dose rate 4 ppm): 0%
Observed Efficacy (Blumeria graminis [2]; Example 16, dose rate 0.06 ppm): 8%
Observed Efficacy (Blumeria graminis [2]; Example 16, dose rate 0.25 ppm): 18%
Observed Efficacy (Blumeria graminis [2]; Example 16, dose rate 1 ppm): 73%
Observed Efficacy (Blumeria graminis [2]; Example 16, dose rate 4 ppm): 99%
